From patent US10357537B2, “Cyclotides as immunosuppressive agents” (priority 2011, dated 2019)

Tests used:
[1] = tested on: activated human primary PBMC; experiment: Anti-proliferative CFSE cell division assay on anti-CD3/CD28-activated PBMC; conditions: CFSE, flow cytometry; extract 50-100 μg/mL, cyclotides 1.8-14 μM, melittin 0.05-1.6 μM
Protocol: Human peripheral blood mononuclear cells (PBMC) were isolated from the blood of healthy adult donors obtained from the Blood Transfusion Centre (University Medical Center, Freiburg, Germany). Venous blood was centrifuged on a LymphoPrep™ gradient (density: 1.077 g/cm^3, 20 min, 500×g, 20° C.; Progen, Heidelberg, Germany). Afterwards cells were washed twice with medium and cell viability and concentration was determined using the trypan blue exclusion test. PBMC were cultured in RPMI 1640 medium supplemented with 10% heat-inactivated fetal calf serum (PAA, Coelbe, Germany), 2 mM L-glutamine, 100 U/mL penicillin and […] (all from Invitrogen, Karlsruhe, Germany). The cells were cultured at 37° C. in a humidified incubator with a 5% CO2/95% air atmosphere. All experiments conducted on human material were approved by the Ethics committee of the University of Freiburg.
(§1) After cultivation, the cells were assessed in bioassays as described in the text.
For cell proliferation and cell division tracking analysis PBMC were harvested and washed twice in cold PBS and resuspended in PBS at a concentration of 5×10^6 cells/mL. Cells were incubated for 10 min at 37° C. with carboxyfluorescein diacetate succinimidyl ester (CFSE; 5 μM: Sigma-Aldrich, Taufkirchen, Germany). The staining reaction was stopped by washing twice with complete medium. Afterwards, the cell division progress was analysed using flow cytometric analysis.
The anti-proliferative effect of cyclotide mutants/variants was tested according to Example 5. […] Afterwards the cell proliferation was assessed by analysing cell division using flow cytometric-based histogram analysis.

nematodes = experiment: Relative nematocidal activity (other assays, Table 2); type: in vivo; conditions: some cells print two values separated by a slash
[2] = Relative hemolytic activity (other assays, Table 2); type: cell-based; conditions: some values given for the Ala mutant
[3] = Relative insecticidal activity (other assays, Table 2); conditions: in vivo
[4] = tested on: activated human primary PBMC; experiment: Flow cytometric forward-side-scatter analysis of viability and proliferation; type: cell-based; conditions: data not shown
Protocol: After completion of the chemical analysis, different concentrations of the crude O. affinis cyclotide extract were tested for its anti-proliferative capacity on activated human primary PBMC (FIG. 2).

[5] = tested on: activated human primary PBMC
Protocol: as §1
The levels of apoptosis were determined using the annexin V-FITC apoptosis detection kit (eBioscience, Frankfurt, Germany) according to the manufacturer's instructions. After annexin V staining, propidium iodide solution (PI; eBioscience) was added and the cells were incubated in the dark, followed by a flow cytometric analysis to determine the amount of apoptosis and necrosis. CPT (30 μg/mL) and Triton-X 100 (0.5%) was used as positive controls for apoptosis and necrosis, respectively.
Cellular apoptotic and necrotic hallmarks were measured by using inter-nucleosomal DNA fragmentation (subG1^+ cells) assay and phosphatidylserine surface analysis through a single and combinatory annexin V and propidium iodide staining. This double staining process allowed the discrimination between viable (annexin^−/PI^−), apoptotic (annexin^+/PI^− and annexin^+/PI^+) or necrotic (annexin^−/PI^+) cells.

[6] = tested on: experimental auto-immune encephalomyelitis in C57BL/6 mice; type: in vivo, mouse; conditions: 43 days
[7] = tested on: CNS inflammatory and demyelinating lesions; experiment: Histopathology of CNS in EAE mice; type: in vivo, mouse; conditions: haemotoxylin/eosin, Luxol fast blue, Bielshowsky silver staining
Source text: At the completion of the experiments, mice were anesthetized, their blood collected (for subsequent antibody determination) and brain and spinal cord carefully removed, prior to immersion in a 4% paraformaldehyde, 0.1 M phosphate buffer solution. Segments of brain, cerebellum and spinal cord were embedded in paraffin. Sections were stained with haemotoxylin-eosin, Luxol fast blue and Bielshowsky for evidence of inflammation, demyelination and axonal damage, respectively (McQualter 2001 J Exp Med. October 1; 194(7), 873-82). Semiquantitative histological evaluation for inflammation and demyelination was performed and scored in a blind fashion as follows: 0, no inflammation; 1, cellular infiltrate only in the perivascular areas and meninges; 2, mild cellular infiltrate in parenchyma; 3, moderate cellular infiltrate in parenchyma; and 4, severe cellular infiltrate in parenchyma (Bettadapura J Neurochem 70, 199, 1593-1599 8; Okuda J Neuroimmunol 131, 2002, 115-125).
The influence of kalata B1 vaccination on the formation of CNS inflammatory and demyelinating lesions was examined by histological studies of fixed tissue using haemotoxylin/eosin, Luxol fast blue (LFB) and Bielshowsky silver staining.

anti-MOG antibodies = experiment: MOG-specific antibody ELISA of sera; type: in vivo, mouse; conditions: Day 43, reactivity to MOG35-55
Protocol: Antibody activity to rMOG and MOG35-55 in mouse sera was measured by ELISA, as previously described Ichikawa Cell Immunol 191, 1999, 97-104). Briefly, serum was collected at the end of the experiments and tested by ELISA with rMOG and MOG35-55 peptide-coated plates (Maxisorp, Nunc).
Whether the suppression of EAE in mice vaccinated with kalata B1 was associated with a decrease in the production of specific antibodies to MOG was examined. Accordingly, sera from kalata B1 and PBS treated mice were collected at the completion of the experiment (Day 43) and tested for their reactivity to MOG35-55.

[8] = tested on: spleen cell cultures of EAE mice; experiment: Cytokine bead array of spleen cell supernatants; type: cell-based, mouse
Protocol: For cytokine assays, 2 ml of cells (5×10^6 cells/ml) from spleens isolated 32-46 days after immunization were added to 24 well plates either alone or with MOG35-55 (10 μg/ml) or with anti-CD3ε and anti-CD 28 (20 μg/ml each). Supernatants were collected at 48 and 72 h. Quantitation of mouse cytokine content incorporating Th1, Th2 cytokines and chemokines (IFNγ, IL-2, IL-3, IL-4, IL-5, IL-6, IL-9, IL-10, IL-12p70, IL-13, GM-CSF, KC, MCP-1, MIG, and TNF) were simultaneously determined using a multiplexed bead assay (Cytometric Bead Array Flex sets [CBA]) according to the manufacturer's recommended protocol (Becton Dickinson). Acquisition of 4500 events was performed using a FACScanto II flow cytometer (Becton Dickinson, San Jose, USA) and Diva software and data analysed and fitted to a 4-parameter logistic equation using the FCAP array software (Soft Flow, Pécs, Hungary). Minimum detection levels of each cytokine were: IFNγ, 5.2 μg/ml; IL-2, 1.5 μg/ml; IL-3, 4.2 μg/ml; IL-4, 0.8 μg/ml; IL-5, 4.8 μg/ml; IL-6, 6.5 μg/ml; IL-9, 10.5 μg/ml; IL-10, 16.4 μg/ml; IL-12p70, 9.2 μg/ml; IL-13, 7.3 μg/ml; GM-CSF, 9.9 μg/ml; KC, 16.2 μg/ml; MCP-1, 29 μg/ml; MIG, 11.4 μg/ml and TNF, 17.1 μg/ml.
Accordingly, conditioned media generated from in vitro stimulated and non-stimulated spleen cell cultures were assessed in cytokine bead array assays. A total of 15 cytokines were analysed simultaneously, including, IL2, IL3, IL4, IL5, IL6, IL9, IL10, IL12p70, IL13, IFNγ, GM-CSF, KC, MCP1, MIG and TNFα.

[9] = tested on: splenocytes of vaccinated EAE mice; conditions: MOG35-55
Protocol: Spleens were taken from mice sacrificed 32-46 days after MOG35-55 immunization. Cells were gently dispersed through a 70 μm nylon mesh (BD) into a single cell suspension, washed and cultured at 2.5×10^6 cells/ml in complete RPMI (RPMI 1640 containing 10% heat-inactivated fetal calf serum (Sigma), 2 mM L-glutamine, 100 U/ml of penicillin, 100 μg/ml of streptomycin, 50 μm 2-mercaptoethanol and 1 mm sodium pyruvate. Two hundred microliters of cell suspensions were then added to 96 well microtitre plates either alone, with MOG35-55 (20 μg/ml) or anti-CD3ε and anti-CD 28 (20 μg/ml each) and incubated for 66 h at 37° C. with 5% CO2. Ten microliters of [^3H]thymidine (1 μCi/well; Amersham, Australia; diluted 1/10 in media) were added to each well for the last 18 h. Plates were harvested onto glass fibre filters and a drop of Microscint Scintillant (Perkin Elmer) was added to each well. Counts were read using a Top Count NXT Scintillation Counter (Perkin Elmer). Presented values are the mean of three wells.

H. contortus nematodes = conditions: Huang et al., 2010; read-out: IC50 nematocidal activity; cited from earlier work
[10] = tested on: T. colibriformus nematodes; conditions: Huang et al., 2010; read-out: IC50 nematocidal activity; cited from earlier work
[11] = tested on: human T-lymphoblast cells; conditions: read-out: IC50 cytotoxicity; Daly et al., 2004; cited from earlier work
[12] = Barry 2003; Henriques 2011; cited from earlier work
[13] = non-stimulated spleen cell supernatants

CC(C)C[C@@H]1NC(=O)CNC(=O)[C@H](CC(N)=O)NC(=O)[C@H](CCCNC(=N)N)NC(=O)[C@H]([C@@H](C)O)NC(=O)[C@@H]2CSSC[C@@H]3NC(=O)[C@H]([C@@H](C)O)NC(=O)CNC(=O)CNC(=O)[C@H](C(C)C)NC(=O)[C@@H]4CSSC[C@H](NC(=O)[C@H]([C@@H](C)O)NC(=O)[C@H](CSSC[C@H](NC(=O)[C@H](C(C)C)NC(=O)[C@@H]5CCCN5C1=O)C(=O)NCC(=O)N[C@@H](CCC(=O)O)C(=O)N[C@@H]([C@@H](C)O)C(=O)N4)NC(=O)CNC(=O)[C@@H]1CCCN1C(=O)[C@H]([C@@H](C)O)NC(=O)[C@H](CC(N)=O)NC3=O)C(=O)N[C@@H](CO)C(=O)N[C@@H](Cc1c[nH]c3ccccc13)C(=O)N1CCC[C@H]1C(=O)N[C@@H](C(C)C)C(=O)N2 [Kalata B1]
cell division / proliferation of activated PBMC (in words) [1]: dose-dependent decrease of the cell division capacity
Relative activity in other assays (fold difference to kB1): nematocidal (nematodes): 1.0 fold difference to kB1
Relative activity in other assays (fold difference to kB1): hemolytic [2]: 0.7 fold difference to kB1
Relative activity in other assays (fold difference to kB1): insecticidal [3]: 1.0 fold difference to kB1
concentrations cytotoxic to the cells [4]: higher than 14 μM
induction of necrosis ([5]; kalata B1 14 μM vs untreated control, Triton-X 100, melittin high concentrations): slightly increased
induction of apoptosis ([5]; kalata B1 1.8-14 μM, CPT 30 μg/mL, melittin up to 1.6 μM): no significant influence on the induction of apoptosis
mean cumulative score ([6]; p<0.01 vs PBS control group): 42.2±13.0
incidence and severity of EAE ([6]; three sc injections in IFA at weekly intervals before EAE induction): reduction in the incidence and severity of EAE
histological lesions of EAE [7]: some improvement in disease severity as judged by decrease in histological lesions of EAE
anti-MOG antibodies in sera (anti-MOG antibodies): anti-MOG antibodies were detected in all sera regardless of the vaccination regimen
cytokine content in stimulated supernatants ([8]; MOG35-55 or CD3/38-stimulated, cyclotide vs control groups, data not shown): no marked changes in cytokine content
level of TNFα [8, 13]: significantly reduced levels
level of chemokine MIG [8, 13]: significantly reduced levels
stimulation indices (SI), splenocyte proliferation to MOG [9]: 2.9±0.4
IC50 (H. contortus nematodes): 2.7 µM
IC50 [10]: 4.5 µM
IC50 [11]: 3.5 µM
concentrations causing hemolysis and membrane disruption [12]: > 50 µM
